Results taken from patent US20170000702A1, “PERSONAL CARE COMPOSITIONS COMPRISING A SENSATE” (The Gillette Park, priority 2015, published 2017).
Read-outs that look alike come from different tables or passages of the source.

Legend:
human TRPV1 [1] = molecular target: T1, human TRPV1 (Homo sapiens, UniProt Q8NER1); assay: Pre-Incubation Test Method, TRPV1 (FLIPR intracellular calcium, capsaicin activator); type: cell-based
T1 construct: expressed in transfected cells; host or cells: HEK-293
Description: (§1) The Pre-Incubation Test and Direct Addition Test Methods, as defined herein, can be conducted on either TRPV1 or TRPA1 receptors.
(§2) Pre-Incubation Test Method: First, the intracellular calcium ion (Ca^+2) levels in TRPV1 and TRPA1 receptors is measured. […] Cells are detached with addition of 10 ml of PBS (phosphate buffered saline) by hand shaking gently. Cells are transferred to a 50 ml tube and centrifuged at 850 rpm for 3 minutes to remove PBS. After centrifugation, a pellet of cells is formed in the bottom of the tube separating them from the supernatant solution. […] Fluo-4 is a fluorescent dye used for quantifying cellular Ca^2+ concentrations in the 100 nM to 1 microM range. At the end of the 30 minutes, 45 ml of assay buffer [1× HBSS (Hank's Balanced Salt Solution), 20 mM HEPES (4-(2-Hydroxyethyl)-1-piperazineethanesulfonic acid)] is added to wash cells and the resulting combination is then centrifuged at 850 rpm for 3 minutes to remove excess buffer and Fluo-4 AM calcium indicator.
(§3) The pellet cells are re-suspended in 10 ml assay buffer and 90 μl aliquots (˜50,000 cells) per well delivered to a 96-well assay plate containing 10 μl of test compounds (1 mM in assay buffer, final concentration 100 μM) or buffer control and incubated at room temperature for 30 minutes. […] The FLIPR assay is an accepted method for detecting changes in intracellular calcium concentration. Then 20 μl of the activators [1.8 μM Capsaicin (final concentration 300 nM) for TRPV1 or 300 μM AITC (final concentration 50 μM) for TRPA1 is added by FLIPR automatically and fluorescence recorded immediately.

human TRPA1 [2] = molecular target: T2, human TRPA1 (Homo sapiens, UniProt O75762); assay: Pre-Incubation Test Method, TRPA1 (FLIPR intracellular calcium, AITC activator); type: cell-based
T2 construct: expressed in transfected cells; host or cells: HEK-293
T2 sequence (O75762 whole entry): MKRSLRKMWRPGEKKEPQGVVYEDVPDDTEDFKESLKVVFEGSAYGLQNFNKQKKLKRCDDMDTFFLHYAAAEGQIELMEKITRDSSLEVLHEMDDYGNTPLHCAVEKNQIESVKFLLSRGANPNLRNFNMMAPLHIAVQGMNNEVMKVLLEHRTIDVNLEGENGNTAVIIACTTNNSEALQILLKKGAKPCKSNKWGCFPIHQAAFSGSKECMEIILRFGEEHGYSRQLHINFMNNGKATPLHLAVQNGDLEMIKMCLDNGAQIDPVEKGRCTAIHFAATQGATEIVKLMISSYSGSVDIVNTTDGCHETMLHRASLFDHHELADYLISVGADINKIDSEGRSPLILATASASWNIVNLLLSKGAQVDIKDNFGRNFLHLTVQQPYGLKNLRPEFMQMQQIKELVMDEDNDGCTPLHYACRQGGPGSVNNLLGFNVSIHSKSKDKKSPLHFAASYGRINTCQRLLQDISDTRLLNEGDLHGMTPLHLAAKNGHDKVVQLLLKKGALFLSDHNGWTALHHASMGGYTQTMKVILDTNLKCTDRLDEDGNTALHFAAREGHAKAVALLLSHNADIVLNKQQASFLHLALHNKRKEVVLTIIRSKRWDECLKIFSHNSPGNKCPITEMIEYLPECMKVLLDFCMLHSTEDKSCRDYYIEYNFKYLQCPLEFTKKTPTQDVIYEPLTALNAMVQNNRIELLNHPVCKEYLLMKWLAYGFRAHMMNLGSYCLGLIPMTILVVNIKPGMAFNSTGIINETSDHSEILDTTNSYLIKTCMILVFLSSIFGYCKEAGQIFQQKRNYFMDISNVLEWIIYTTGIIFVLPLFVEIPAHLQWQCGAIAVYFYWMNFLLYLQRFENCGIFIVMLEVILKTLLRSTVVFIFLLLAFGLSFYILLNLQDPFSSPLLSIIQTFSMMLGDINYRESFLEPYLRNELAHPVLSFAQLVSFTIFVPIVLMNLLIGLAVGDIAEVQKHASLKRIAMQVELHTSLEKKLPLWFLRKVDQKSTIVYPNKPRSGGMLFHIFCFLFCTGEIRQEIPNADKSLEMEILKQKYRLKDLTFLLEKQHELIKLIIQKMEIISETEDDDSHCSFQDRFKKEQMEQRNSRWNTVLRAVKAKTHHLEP
Description: as §1, §2, §3

human TRPV1 [3] = molecular target: T1, human TRPV1; assay: Direct Addition Test Method, TRPV1 (FLIPR intracellular calcium); type: cell-based
Description: as §1, §2, §3
(§4) Direct Addition Test Method (for determining the direct effect of test compounds on TRPV1 and TRPA1): All procedures are same as the pre-incubation test except 10 μl assay buffer instead of 10 μl test compounds in the 96-well assay plates. The fluorescence is measured immediately after addition of 20 μl of 600 μM each compound (final concentration 100 μM). The 20 μl of activator (capsaicin or AITC) is as the positive control. The percentage of up-regulation or down-regulation is calculated based on the fluorescence measurement.

human TRPA1 [4] = molecular target: T2, human TRPA1; assay: Direct Addition Test Method, TRPA1 (FLIPR intracellular calcium); type: cell-based
Description: as §1, §2, §3, §4

[5] = In use irritation Test 1 (single variable shave test with panelists); type: in vivo; settings: control 6.3
Description: 10. In Use Irritation Data: • In use irritation Test 1: Five samples are produced with the following formulation. Samples are tested with panelists in a single variable shave test with only the addition and level of sensate being varied. Respondents provide average irritation ratings summarized below. • Testing formula: […]

[6] = In use irritation Test 2 (single variable shave test with panelists); type: in vivo; settings: control 5.60
Description: • In use irritation Test 2: Five samples are produced with the same blank testing formulation as in Test 1, above. Samples are tested with panelists in a single variable shave test with only the addition and level of sensate being varied.

[7] = TRPV1, HEK-293 cells, test compound final concentration 100 μM, 30 minutes pre-incubation, activator Capsaicin 300 nM
[8] = TRPA1, HEK-293 cells, test compound final concentration 100 μM, 30 minutes pre-incubation, activator AITC 50 μM
[9] = TRPV1, HEK-293 cells, compound final concentration 100 μM, no pre-incubation, capsaicin as positive control
[10] = TRPA1, HEK-293 cells, compound final concentration 100 μM, no pre-incubation, AITC as positive control
[11] = sensate added to control formula at 0.2%

T1 sequence (Q8NER1 whole entry): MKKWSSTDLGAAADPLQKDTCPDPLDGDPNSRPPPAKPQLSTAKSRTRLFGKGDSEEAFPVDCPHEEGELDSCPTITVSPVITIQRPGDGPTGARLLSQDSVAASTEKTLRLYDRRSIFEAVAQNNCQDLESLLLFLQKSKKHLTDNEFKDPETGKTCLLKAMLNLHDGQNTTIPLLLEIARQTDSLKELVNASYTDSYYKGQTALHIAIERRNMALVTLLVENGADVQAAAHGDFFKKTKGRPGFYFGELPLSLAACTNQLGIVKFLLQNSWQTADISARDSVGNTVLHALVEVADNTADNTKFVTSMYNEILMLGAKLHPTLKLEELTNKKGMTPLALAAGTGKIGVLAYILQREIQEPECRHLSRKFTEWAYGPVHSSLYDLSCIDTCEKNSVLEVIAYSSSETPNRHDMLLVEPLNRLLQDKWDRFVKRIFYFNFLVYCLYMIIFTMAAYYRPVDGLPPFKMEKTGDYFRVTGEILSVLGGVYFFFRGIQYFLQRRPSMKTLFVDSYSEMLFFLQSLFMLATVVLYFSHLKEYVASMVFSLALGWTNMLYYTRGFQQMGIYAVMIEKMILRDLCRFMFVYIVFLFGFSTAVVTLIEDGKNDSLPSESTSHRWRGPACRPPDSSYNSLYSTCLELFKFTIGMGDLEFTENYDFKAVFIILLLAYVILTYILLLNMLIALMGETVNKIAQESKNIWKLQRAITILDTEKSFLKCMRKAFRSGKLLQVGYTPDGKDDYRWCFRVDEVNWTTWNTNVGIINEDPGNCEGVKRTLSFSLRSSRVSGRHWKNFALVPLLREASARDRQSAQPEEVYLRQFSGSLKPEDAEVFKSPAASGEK

SMILES	Pre-incubation % Regulation (human TRPV1 [1]; [7]) [%]	Pre-incubation % Regulation (human TRPA1 [2]; [8]) [%]	Direct Addition % Regulation (human TRPV1 [3]; [9]) [%]	Direct Addition % Regulation (human TRPA1 [4]; [10]) [%]	also measured
Cc1cc(O)ccc1Cl [4-chloro-3-methylphenol]	47.49	−0.43	292.92	319.54	Avg Irritation Score [5, 11]: 4.3
C=C1CCC(C)C(C)(C)C1/C=C/C(C)=O (stereo not shown)	22.16	23.55	5.24	4.96	Avg Irritation Score ([6]; sensate at 0.1% in control formulation): 5.40
Cc1cc(O)cc(C)c1Cl [Chloroxylenol, chloroxylenol]	37.52	−0.08	326.69	381.06	Avg Irritation Score [5, 11]: 5.2
OCc1ccccc1 [Benzyl Alcohol, benzyl alcohol]	51.18	14.61	−2.09	21.39	Avg Irritation Score ([5]; sensate added to control formula at 1%): 4.8
CC(=O)CCC=C(C)C [6-Methyl-5-hepten-2-one, 6-methyl-5-hepten-2-one]	–	–	–	–	Avg Irritation Score ([5]; sensate added to control formula at 0.15%): 6.0
CC(C)C(=O)OCCOc1ccccc1 [Phenoxyethyl Isobutyrate, phenoxyethyl isobutyrate]	41.34	36.8	−6.84	−7.84	Avg Irritation Score ([6]; sensate at 0.13% in control formulation): 4.45
CC(=O)[O][Zn][O]C(C)=O [Zinc Acetate, zinc acetate]	–	–	–	–	Pre-incubation % Regulation (human TRPV1 [1]): 35.2%; Pre-incubation % Regulation (human TRPA1 [2]): 21.67%; Direct Addition % Regulation (human TRPV1 [3]): 0.88%; Direct Addition % Regulation (human TRPA1 [4]): −0.66%; Avg Irritation Score ([6]; sensate at 0.03% in control formulation): 4.55
